Assay results reported in publication PMC6341602, “Cytosolic group IVA phospholipase A2 inhibitors, AVX001 and AVX002, ameliorate collagen-induced arthritis” (Arthritis Research & Therapy, 2019).

Target: T1, GIVA cPLA2 (cPLA2α) (Homo sapiens, UniProt P47712)
T1 construct: gene PLA2G4A
T1 sequence (P47712 1-749): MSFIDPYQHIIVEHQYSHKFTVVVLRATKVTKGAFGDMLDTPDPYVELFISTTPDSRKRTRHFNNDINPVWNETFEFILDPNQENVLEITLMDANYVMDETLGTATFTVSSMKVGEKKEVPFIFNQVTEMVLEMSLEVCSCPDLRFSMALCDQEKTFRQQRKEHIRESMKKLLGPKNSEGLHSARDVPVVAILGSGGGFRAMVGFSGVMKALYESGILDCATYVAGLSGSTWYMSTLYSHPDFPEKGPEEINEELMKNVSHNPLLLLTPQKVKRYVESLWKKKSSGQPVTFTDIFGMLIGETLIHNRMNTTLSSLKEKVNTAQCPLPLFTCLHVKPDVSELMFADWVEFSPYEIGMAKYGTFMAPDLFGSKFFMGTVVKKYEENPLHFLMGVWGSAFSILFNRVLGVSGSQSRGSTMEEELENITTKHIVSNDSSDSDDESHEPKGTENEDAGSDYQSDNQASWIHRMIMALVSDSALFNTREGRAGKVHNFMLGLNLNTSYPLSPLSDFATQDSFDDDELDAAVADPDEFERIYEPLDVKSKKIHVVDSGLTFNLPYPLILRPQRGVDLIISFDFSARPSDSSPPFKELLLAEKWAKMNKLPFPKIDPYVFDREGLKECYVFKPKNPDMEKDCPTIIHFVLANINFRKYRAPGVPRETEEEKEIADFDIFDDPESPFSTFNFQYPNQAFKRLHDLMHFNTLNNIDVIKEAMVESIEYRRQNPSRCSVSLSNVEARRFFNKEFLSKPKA
Test: in vitro mixed micelle modified Dole assay ([…]-PAPC)
Assay type: biochemical

CC/C=C\C/C=C\C/C=C\C/C=C\CC/C=C/CSCC(=O)C(F)(F)F [AVX001, (6E,10Z,13Z,16Z,19Z)-1,1,1-trifluoro-4-thiadocosa-6,10,13,16,19-pentaen-2-one]
In vitro enzyme activity / GIVA cPLA2 / XI(50): 0.0072 ± 0.0007 mole fraction (XI(50))

CC/C=C\C/C=C\C/C=C\C/C=C\C/C=C\CCSCC(=O)C(F)(F)F [AVX002, 1,1,1-trifluoro-3-(((3Z,6Z,9Z,12Z,15Z)-octadeca-3,6,9,12,15-pentaen-1-yl)thio)propan-2-one]
In vitro enzyme activity / GIVA cPLA2 / XI(50): 0.0057 ± 0.001 mole fraction (XI(50))
